Test results published in patent US8518980B2, “Treatment of Duchenne muscular dystrophy” (Summit Corporation PLC, priority 2006, dated 2013).

Test system: Utrophin A promoter linked to a luciferase reporter gene (H2K/mdx/Utro A reporter cell line)
Experiment: Luciferase reporter assay (murine H2K cells)
Conditions: Mus musculus, H2K mdx

Row | Structure (SMILES) | activity at 10 µM
1 | COc1ccc(-c2nc3ccccc3s2)cc1N [Example 597, 5-(Benzo[d]thiazol-2-yl)-2-methoxyaniline] | 301 to 400%
2 | Nc1ccc2nc(-c3cccc(Cl)c3)oc2c1 [Example 598, 2-(3-Chlorophenyl)benzo[d]oxazol-6-amine] | 301 to 400%
3 | Cc1cc(-c2nc3ccccc3s2)ccc1[N+](=O)[O-] [Example 599, 2-(3-Methyl-4-nitrophenyl)benzo[d]thiazole] | > 401%
4 | COc1cccc(-c2nc3ccccc3[nH]2)c1 [Example 600, 2-(3-Methoxyphenyl)-1H-benzo[d]imidazole] | 201 to 300%
5 | Nc1ccc(-c2nc3ccccc3s2)cc1 [Example 601, 4-(Benzo[d]thiazol-2-yl)aniline] | 301 to 400%
6 | Nc1cccc(-c2nc3ccccc3s2)c1 [Example 602, 3-(Benzo[d]thiazol-2-yl)aniline] | 301 to 400%
7 | Cc1ccc(-c2nc3cc(N)ccc3o2)cc1C [Example 603, 2-(3,4-Dimethylphenyl)benzo[d]oxazol-5-amine] | 301 to 400%
8 | O=[N+]([O-])c1ccc2nc(-c3ccccc3)[nH]c2c1 [Example 604, 6-Nitro-2-phenyl-1H-benzo[d]imidazole] | 301 to 400%
9 | Cc1ccc2[nH]c(-c3ccc([N+](=O)[O-])cc3)nc2c1 [Example 605, 5-Methyl-2-(4-nitrophenyl)-1H-benzo[d]imidazole] | 301 to 400%
10 | COc1cccc(-c2nc3ccccc3s2)c1 [Example 606, 2-(3-Methoxyphenyl)benzo[d]thiazole] | 301 to 400%
11 | Cc1cc(-c2nc3ccccc3o2)ccc1[N+](=O)[O-] [Example 607, 2-(3-Methyl-4-nitrophenyl)benzo[d]oxazole] | > 401%
12 | c1ccc2sc(-c3ccc4c(c3)OCO4)nc2c1 [Example 608, 2-(Benzo[d][1,3]dioxol-5-yl)benzo[d]thiazole] | > 401%
13 | CCC(C)c1ccc2oc(-c3ccc(N)cc3)nc2c1 (stereo not shown) [Example 609, 4-(5-Sec-butylbenzo[d]oxazol-2-yl)aniline] | 301 to 400%
14 | Cc1cc2nc(-c3ccc(N)cc3O)oc2cc1C [Example 610, 5-Amino-2-(5,6-dimethylbenzo[d]oxazol-2-yl)phenol] | > 401%
15 | Cc1ccc2nc(-c3ccc(C(F)(F)F)cc3)oc2c1 [Example 611, 6-Methyl-2-(4-(trifluoromethyl)phenyl)benzo[d]oxazole] | 301 to 400%
16 | Cc1ccc2oc(-c3cccs3)nc2c1 [Example 612, 5-Methyl-2-(thiophen-2-yl)benzo[d]oxazole] | 201 to 300%
17 | Cc1ccc(-c2nc3ccccc3[nH]2)cc1 [Example 613, 2-p-Tolyl-1H-benzo[d]imidazole] | 301 to 400%
18 | O=C(COc1ccc2c(c1)OCO2)Nc1nc2ccccc2s1 [Example 614, 2-(Benzo[d][1,3]dioxol-5-yloxy)-N-(benzo[d]thiazol-2-yl)acetamide] | < 200%
19 | CCn1c(C)nc2cc(C(=O)Nc3ccccc3)ccc21 [Example 615, 1-ethyl-2-methyl-N-phenyl-1H-benzo[d]imidazole-5-carboxamide] | > 401%
20 | O=C(Nc1nc2ccccc2s1)c1ccccc1Br [Example 616, N-(benzo[d]thiazol-2-yl)-2-bromobenzamide] | > 401%

Row | Structure (SMILES) | activity at 10 µM
21 | O=C(CSc1nc2ccccc2s1)N1CCCCC1 [Example 617, 2-(benzo[d]thiazol-2-ylthio)-1-(piperidin-1-yl)ethanone] | > 401%
22 | O=C(Nc1ccc2c(c1)OCO2)c1sc2ccccc2c1Cl [Example 618, N-(benzo[d][1,3]dioxol-5-yl)-3-chlorobenzo[b]thiophene-2-carboxamide] | > 401%
23 | COc1ccc(-c2nc3ccccc3o2)cc1N [Example 619, 5-(benzo[d]oxazol-2-yl)-2-methoxyaniline] | > 401%
24 | Cc1ccc(-c2nc3ccccc3[nH]2)cc1N [Example 620, 5-(1H-benzo[d]imidazol-2-yl)-2-methylaniline] | > 401%
25 | O=C(Nc1ccccc1F)c1sc2ccccc2c1Cl [Example 621, 3-chloro-N-(2-fluorophenyl)benzo[b]thiophene-2-carboxamide] | > 401%
26 | Nc1cccc(-c2nc3cc(Cl)ccc3o2)c1 [Example 622, 3-(5-chlorobenzo[d]oxazol-2-yl)aniline] | > 401%
27 | Cc1cc2nc(-c3cccc(NC(=O)c4ccco4)c3)oc2cc1C [Example 623, N-(3-(5,6-dimethylbenzo[d]oxazol-2-yl)phenyl)furan-2-carboxamide] | > 401%
28 | CCc1ccc2oc(-c3ccc(C)c(N)c3)nc2c1 [Example 625, 5-(5-ethylbenzo[d]oxazol-2-yl)-2-methylaniline] | > 401%
29 | O=C(Nc1nc2ccccc2s1)c1cc2ccccc2o1 [Example 626, N-(benzo[d]thiazol-2-yl)benzofuran-2-carboxamide] | > 401%
30 | Cc1cc(C)c2oc(-c3ccc(Cl)c(N)c3)nc2c1 [Example 627, 2-chloro-5-(5,7-dimethylbenzo[d]oxazol-2-yl)aniline] | > 401%
31 | Nc1c(C(=O)Nc2ccc(F)cc2)sc2nc3c(cc12)CCC3 [Example 628, 3-amino-N-(4-fluorophenyl)-6,7-dihydro-5H-cyclopenta[e]thieno[2,3-b]pyridine-2-carboxamide] | > 401%
32 | O=C(Nc1nc2ccc(F)cc2s1)c1ccccc1Br [Example 629, 2-bromo-N-(6-fluorobenzo[d]thiazol-2-yl)benzamide] | > 401%
33 | COc1ccc2oc(-c3cccc(N)c3)nc2c1 [Example 630, 3-(5-methoxybenzo[d]oxazol-2-yl)aniline] | > 401%
34 | CCC(C)C(=O)Nc1ccc(-c2nc3ccccc3[nH]2)cc1 (stereo not shown) [Example 631, N-(4-(1H-benzo[d]imidazol-2-yl)phenyl)-2-methylbutanamide] | > 401%
35 | Cc1ccc2[nH]c(-c3sc4nc(C)ccc4c3N)nc2c1 [Example 632, 6-methyl-2-(5-methyl-1H-benzo[d]imidazol-2-yl)thieno[2,3-b]pyridin-3-amine] | > 401%
36 | c1ccc(OCc2nc3ccccc3s2)cc1 [Example 633, 2-(phenoxymethyl)benzo[d]thiazole] | 301 to 400%
37 | CCn1c(C)nc2cc(-c3ccccc3)ccc21 [Example 634, 1-ethyl-2-methyl-5-phenyl-1H-benzo[d]imidazole] | 301 to 400%
38 | Cc1ccc2nc(-c3ccc(C)c(N)c3)oc2c1 [Example 635, 2-methyl-5-(6-methylbenzo[d]oxazol-2-yl)aniline] | 301 to 400%
39 | Cc1ccc2oc(-c3ccc(Cl)c(N)c3)nc2c1 [Example 636, 2-chloro-5-(5-methylbenzo[d]oxazol-2-yl)aniline] | 301 to 400%
40 | Cc1ccc(NC(=O)Nc2nc3ccccc3s2)cc1 [Example 637, 1-(benzo[d]thiazol-2-yl)-3-p-tolylurea] | 301 to 400%

Row | Structure (SMILES) | activity at 10 µM
41 | Cc1ccc2nc(-c3ccc(NC(=O)c4cccnc4)cc3)sc2c1 [Example 638, N-(4-(6-methylbenzo[d]thiazol-2-yl)phenyl)nicotinamide] | 301 to 400%
42 | c1ccc2nc(-c3nc4ccccc4s3)ccc2c1 [Example 639, 2-(quinolin-2-yl)benzo[d]thiazole] | 301 to 400%
43 | COc1ccc(CSc2nc3ccccc3[nH]2)cc1 [Example 640, 2-(4-methoxybenzylthio)-1H-benzo[d]imidazole] | 301 to 400%
44 | O=C(Nc1ccc(-c2nc3ncccc3o2)cc1)c1ccccc1Cl [Example 641, 2-chloro-N-(4-(oxazolo[4,5-b]pyridin-2-yl)phenyl)benzamide] | 301 to 400%
45 | CCc1ccc2oc(-c3cccc(NC(C)=O)c3)nc2c1 [Example 642, N-(3-(5-ethylbenzo[d]oxazol-2-yl)phenyl)acetamide] | 301 to 400%
46 | Cc1ccc2nc(-c3ccc(O)cc3)sc2c1 [Example 643, 4-(6-methylbenzo[d]thiazol-2-yl)phenol] | 301 to 400%
47 | CCC(=O)Nc1cccc(-c2nc3cc(C)ccc3o2)c1 [Example 644, N-(3-(5-methylbenzo[d]oxazol-2-yl)phenyl)propionamide] | 301 to 400%
48 | COc1ccc(CSc2nc3ccccc3n2C)cc1F [Example 645, 2-(3-fluoro-4-methoxybenzylthio)-1-methyl-1H-benzo[d]imidazole] | 301 to 400%
49 | Cc1cc2nc(-c3cc(N)ccc3Cl)oc2cc1C [Example 646, 4-chloro-3-(5,6-dimethylbenzo[d]oxazol-2-yl)aniline] | 301 to 400%
50 | c1cc(NCc2ccncc2)cc(-c2nc3ccccc3s2)c1 [Example 647, 3-(benzo[d]thiazol-2-yl)-N-(pyridin-4-ylmethyl)aniline] | 301 to 400%
51 | Cc1ccccc1C(=O)Nc1nc2ccccc2[nH]1 [Example 648, N-(1H-benzo[d]imidazol-2-yl)-2-methylbenzamide] | 301 to 400%
52 | Cc1cc(-c2nc3cc(N)ccc3o2)ccc1Br [Example 649, 2-(4-bromo-3-methylphenyl)benzo[d]oxazol-5-amine] | 301 to 400%
53 | Cc1cccc(NC(=O)c2sc3nc(C)cc(C)c3c2N)c1 [Example 650, 3-amino-4,6-dimethyl-N-m-tolylthieno[2,3-b]pyridine-2-carboxamide] | 301 to 400%
54 | CC(C)C(=O)Nc1ccc(-c2nc3ccccc3s2)cc1 [Example 651, N-(4-(benzo[d]thiazol-2-yl)phenyl)isobutyramide] | 301 to 400%
55 | Cc1ccc2nc(NC(=O)c3ccco3)sc2c1 [Example 652, N-(6-methylbenzo[d]thiazol-2-yl)furan-2-carboxamide] | 301 to 400%
56 | Nc1cc(-c2nc3ccccc3[nH]2)ccc1Cl [Example 653, 5-(1H-benzo[d]imidazol-2-yl)-2-chloroaniline] | 301 to 400%
57 | Cc1ccc2nc(-c3ccc(NC(=O)CSc4nnc[nH]4)cc3)sc2c1 [Example 654, 2-(4H-1,2,4-triazol-3-ylthio)-N-(4-(6-methylbenzo[d]thiazol-2-yl)phenyl)acetamide] | 301 to 400%
58 | CC(=O)Oc1ccc(C(=O)Nc2ccc(-c3nc4ccccc4[nH]3)cc2)cc1 [Example 655, 4-(4-(1H-benzo[d]imidazol-2-yl)phenylcarbamoyl)phenyl acetate] | 301 to 400%
